Experimental data as given in ChEMBL document CHEMBL1955771, “VX-322: a novel dual receptor tyrosine kinase inhibitor for the treatment of acute myelogenous leukemia” (J Med Chem, 2012).
pIC50, pKi: −log10 of the molar value.

Tests used:
Mus musculus [1] = experiment: Plasma concentration at steady state in BALB/c mouse xenografted with BA/F3 cells expressing FLT3-ITD mutant at 0.25 mg/kg, po qd; assay type: ADME, organism-based, BaF3; set-up: dose 0.25 mg/kg, route oral; settings: in vivo
Mus musculus [2] = experiment: Antitumor activity against mouse BA/F3 cells expressing FLT3-ITD mutant xenografted in BALB/c mouse myeloproliferative model assessed as reduction of phosphorylated Stat5 level in spleen administered qd for 2 days measured after 8 hrs by immunohistochemistry analysis; assay type: functional, organism-based; settings: BaF3
TF-1 = experiment: cells; settings: Homo sapiens, TF-1, 72 h
Description: Cytotoxicity against human TF1 cells expressing PDGFR-beta assessed as cell viability after 72 hrs by resazurin dye based fluorescence assay

Mus musculus [3] = species: Mus musculus; experiment: Toxicity in BALB/c mouse assessed as change in body weight after 100 days; assay type: organism-based; settings: in vivo, 2400 h
cells = settings: Homo sapiens, Leukemia cell, 72 h
Description: Cytotoxicity against human primary leukemia cells isolated from acute myeloid leukemia patient expressing FLT3-ITD mutation assessed as cell viability after 72 hrs by luciferase assay

MV4-11 [4] = experiment: Induction of apoptosis in human MV4-11 cells at 100 nM assessed as apoptotic cells after 48 hrs by annexin V and propidium iodide staining method (reference value: 2.1 %); assay type: functional
MV4-11 [5] = experiment: Induction of apoptosis in human MV4-11 cells at 100 nM assessed as late apoptotic cells after 24 hrs by annexin V and propidium iodide staining method (reference value: 5.1 %); assay type: functional
[6] = Oral bioavailability in BALB/c mouse; assay type: ADME, organism-based; settings: in vivo
Mus musculus [7] = species: Mus musculus; experiment: Toxicity in BALB/c mouse assessed as signs of neutropenia after 100 days; assay type: organism-based; settings: in vivo, 2400 h
[8] = biological target: T1, Tyrosine-protein kinase JAK3 (Homo sapiens, UniProt P52333); experiment: Inhibition of Jak3
T1 sequence (P52333 whole entry): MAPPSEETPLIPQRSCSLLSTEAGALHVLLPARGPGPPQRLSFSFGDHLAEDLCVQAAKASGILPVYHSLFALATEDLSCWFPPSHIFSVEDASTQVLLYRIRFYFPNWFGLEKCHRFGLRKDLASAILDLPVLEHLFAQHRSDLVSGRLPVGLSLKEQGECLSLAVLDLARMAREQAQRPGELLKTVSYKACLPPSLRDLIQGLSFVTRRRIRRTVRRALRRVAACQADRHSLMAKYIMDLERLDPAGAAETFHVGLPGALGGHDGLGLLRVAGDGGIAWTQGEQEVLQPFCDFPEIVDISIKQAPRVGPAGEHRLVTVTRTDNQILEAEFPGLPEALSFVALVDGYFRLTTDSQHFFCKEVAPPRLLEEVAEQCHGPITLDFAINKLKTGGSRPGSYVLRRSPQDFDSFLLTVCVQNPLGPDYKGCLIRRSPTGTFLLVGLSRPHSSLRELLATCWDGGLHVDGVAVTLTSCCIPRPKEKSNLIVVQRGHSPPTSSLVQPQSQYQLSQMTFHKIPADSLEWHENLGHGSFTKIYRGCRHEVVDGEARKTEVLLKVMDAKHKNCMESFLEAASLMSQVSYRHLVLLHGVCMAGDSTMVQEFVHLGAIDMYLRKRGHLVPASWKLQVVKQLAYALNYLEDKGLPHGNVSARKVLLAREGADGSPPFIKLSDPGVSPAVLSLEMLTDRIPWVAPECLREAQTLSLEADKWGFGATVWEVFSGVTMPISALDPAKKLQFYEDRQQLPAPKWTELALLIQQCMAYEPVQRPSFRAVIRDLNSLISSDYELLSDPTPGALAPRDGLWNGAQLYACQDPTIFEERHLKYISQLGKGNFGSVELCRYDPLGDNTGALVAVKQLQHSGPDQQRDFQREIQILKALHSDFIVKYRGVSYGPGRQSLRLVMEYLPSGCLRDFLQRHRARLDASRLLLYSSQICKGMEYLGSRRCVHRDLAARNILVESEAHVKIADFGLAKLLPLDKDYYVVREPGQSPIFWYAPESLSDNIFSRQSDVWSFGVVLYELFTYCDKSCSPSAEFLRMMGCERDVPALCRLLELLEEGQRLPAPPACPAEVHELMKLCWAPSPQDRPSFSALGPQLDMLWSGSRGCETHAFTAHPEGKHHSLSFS

Mus musculus [9] = experiment: Plasma concentration at steady state in BALB/c mouse xenografted with BA/F3 cells expressing FLT3-ITD mutant at 5 mg/kg, po qd; assay type: ADME, organism-based, BaF3; set-up: dose 5 mg/kg, route oral; settings: in vivo
BaF3 = experiment: Antitumor activity against mouse BA/F3 cells expressing FLT3-ITD mutant xenografted in BALB/c mouse myeloproliferative model assessed as increase in host survival days at 0.25 mg/kg, po qd relative to control (reference value: 20 days); assay type: functional, organism-based; set-up: dose 0.25 mg/kg
[10] = biological target: T2, Mast/stem cell growth factor receptor Kit (Homo sapiens, UniProt P10721); experiment: Inhibition of SCF-induced phosphorylation of c-KIT in human TF1 cells after 1 hr by immunoblot analysis; assay type: cell-based, TF-1
T2 sequence (P10721 whole entry): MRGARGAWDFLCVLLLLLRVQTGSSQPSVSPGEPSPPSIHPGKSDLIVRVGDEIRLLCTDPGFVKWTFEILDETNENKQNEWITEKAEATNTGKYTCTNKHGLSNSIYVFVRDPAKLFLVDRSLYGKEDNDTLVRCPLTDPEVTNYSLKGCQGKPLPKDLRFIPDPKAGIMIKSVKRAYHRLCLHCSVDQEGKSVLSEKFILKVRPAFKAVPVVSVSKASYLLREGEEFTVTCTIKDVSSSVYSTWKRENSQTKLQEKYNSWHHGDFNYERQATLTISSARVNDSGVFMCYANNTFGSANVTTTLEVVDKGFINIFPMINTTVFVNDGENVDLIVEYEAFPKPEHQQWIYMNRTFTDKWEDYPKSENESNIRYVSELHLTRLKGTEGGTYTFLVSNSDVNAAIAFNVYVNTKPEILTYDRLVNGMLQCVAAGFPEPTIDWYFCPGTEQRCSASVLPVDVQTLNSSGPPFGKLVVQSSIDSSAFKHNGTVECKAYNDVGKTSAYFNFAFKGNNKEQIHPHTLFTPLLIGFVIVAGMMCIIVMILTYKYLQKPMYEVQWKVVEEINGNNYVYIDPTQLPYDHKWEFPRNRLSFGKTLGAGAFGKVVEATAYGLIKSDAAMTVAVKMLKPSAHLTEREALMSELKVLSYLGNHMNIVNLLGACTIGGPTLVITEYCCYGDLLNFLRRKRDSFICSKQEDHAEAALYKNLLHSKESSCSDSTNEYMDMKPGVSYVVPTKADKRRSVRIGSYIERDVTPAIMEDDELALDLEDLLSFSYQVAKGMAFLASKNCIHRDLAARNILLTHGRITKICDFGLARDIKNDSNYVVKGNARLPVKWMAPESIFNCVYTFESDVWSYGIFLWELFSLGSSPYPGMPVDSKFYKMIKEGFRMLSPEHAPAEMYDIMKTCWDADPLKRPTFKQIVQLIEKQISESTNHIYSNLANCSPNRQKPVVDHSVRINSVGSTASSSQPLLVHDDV

[11] = biological target: T2, Mast/stem cell growth factor receptor Kit; experiment: Inhibition of human recombinant c-Kit by radiometric assay
MV4-11 [12] = experiment: Induction of apoptosis in human MV4-11 cells at 100 nM assessed as prenecrotic cells after 48 hrs by annexin V and propidium iodide staining method (reference value: 91.8 %); assay type: functional
[13] = biological target: T2, Mast/stem cell growth factor receptor Kit; experiment: Inhibition of c-KIT-mediated ERK 1/2 phosphorylation in human TF1 cells at 4 to 12 nM after 1 hr by immunoblot analysis; assay type: cell-based, TF-1
[14] = biological target: Proto-oncogene tyrosine-protein kinase Src (Homo sapiens, UniProt P12931); experiment: Inhibition of Src
Chain of Proto-oncogene tyrosine-protein kinase Src (P12931 2-536 limits assumed): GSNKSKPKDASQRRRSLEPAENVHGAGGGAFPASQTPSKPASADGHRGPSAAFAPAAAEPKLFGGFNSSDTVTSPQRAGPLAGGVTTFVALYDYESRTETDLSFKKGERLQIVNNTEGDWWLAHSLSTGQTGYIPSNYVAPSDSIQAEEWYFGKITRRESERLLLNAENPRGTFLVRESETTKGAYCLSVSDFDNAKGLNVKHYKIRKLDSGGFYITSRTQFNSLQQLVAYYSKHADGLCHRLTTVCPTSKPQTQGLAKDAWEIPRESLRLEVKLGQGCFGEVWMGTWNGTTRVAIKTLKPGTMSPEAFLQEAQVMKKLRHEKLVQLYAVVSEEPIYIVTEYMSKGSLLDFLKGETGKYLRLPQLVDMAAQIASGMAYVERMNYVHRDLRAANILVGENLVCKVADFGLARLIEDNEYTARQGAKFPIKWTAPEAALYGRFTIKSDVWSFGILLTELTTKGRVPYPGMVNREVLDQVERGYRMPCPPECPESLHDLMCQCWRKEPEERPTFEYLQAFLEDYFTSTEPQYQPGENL

Leukemia cell = experiment: Cytotoxicity against human primary leukemia cells isolated from acute myeloid leukemia patient expressing wild type FLT3 assessed as cell viability at 0.0005 to 10 uM after 72 hrs by luciferase assay; assay type: functional, cell-based

For `Nc1nc(Nc2ccc([C@H]3CC[C@H](N4CCOCC4)CC3)cc2)nn1-c1ccccn1`, the Cpss (Mus musculus [1]) was 22 ng/mL, the Activity (Mus musculus [2]) was “Dose-dependent effect” and the pIC50 (TF-1) was 6.48. For the same compound, the Activity (Mus musculus [3]) was “Non-toxic”, the pIC50 (cells) was 7.92 and the Activity (MV4-11 [4]) was 26.3%. For the same compound, the Activity (MV4-11 [5]) was 32.5%, the bioavailability [6] was 100% and the Activity (Mus musculus [7]) was “Non-toxic”. For the same compound, the pKi [8] was 6.55, the Cpss (Mus musculus [9]) was 641 ng/mL and the MSD (BaF3) was 25 days. The pIC50 [10] was 8.40, the inhibition ([10]; TF-1) was “Dose-dependent effect” and the pKi [11] was over 9.00. It also gave an Activity (MV4-11 [12]) of 28.5%, a pIC50 [13] of 8.40 and a pKi [14] of 6.11. It also gave an Activity (Leukemia cell) of over 80%.
